In article PMC7714403 (JCI Insight, 2020):

Assays:
[1] = biological target: BARK1 (Homo sapiens, UniProt P25098); experiment: KiNativ, OCI cells live cell; assay type: cell-based; conditions: 2 h, labeling site Lys2, peptide […]
[2] = biological target: PKCd (Homo sapiens, UniProt Q05655); experiment: KiNativ, OCI cells live cell; assay type: cell-based; conditions: 2 h, labeling site Other, peptide […]
[3] = biological target: TBK1 (Homo sapiens, UniProt Q9UHD2); experiment: KiNativ, OCI cells live cell; assay type: cell-based; conditions: 2 h, labeling site Lys1, peptide […]
[4] = biological target: T1, IKKb (Homo sapiens, UniProt O14920); experiment: KiNativ, OCI cells live cell; assay type: cell-based; conditions: 2 h
T1 sequence (O14920 1-756): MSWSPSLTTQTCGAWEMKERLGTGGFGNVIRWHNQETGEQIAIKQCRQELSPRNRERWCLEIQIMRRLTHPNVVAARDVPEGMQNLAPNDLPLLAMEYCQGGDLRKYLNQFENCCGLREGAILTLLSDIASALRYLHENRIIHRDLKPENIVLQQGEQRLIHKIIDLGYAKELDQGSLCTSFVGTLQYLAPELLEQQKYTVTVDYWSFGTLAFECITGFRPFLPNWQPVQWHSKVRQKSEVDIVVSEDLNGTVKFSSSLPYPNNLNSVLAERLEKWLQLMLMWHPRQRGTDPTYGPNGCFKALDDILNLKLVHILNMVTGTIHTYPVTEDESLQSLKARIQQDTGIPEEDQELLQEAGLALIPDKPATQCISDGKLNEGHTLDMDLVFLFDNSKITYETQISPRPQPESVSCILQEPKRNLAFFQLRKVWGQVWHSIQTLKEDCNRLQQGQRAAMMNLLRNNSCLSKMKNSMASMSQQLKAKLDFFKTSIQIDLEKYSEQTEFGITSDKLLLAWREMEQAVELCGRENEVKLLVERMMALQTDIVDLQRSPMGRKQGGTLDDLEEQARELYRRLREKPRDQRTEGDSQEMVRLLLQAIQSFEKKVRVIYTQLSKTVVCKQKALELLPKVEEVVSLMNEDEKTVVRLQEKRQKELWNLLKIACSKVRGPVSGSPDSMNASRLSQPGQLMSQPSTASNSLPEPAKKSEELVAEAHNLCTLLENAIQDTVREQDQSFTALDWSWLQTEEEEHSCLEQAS

[5] = tested on: ZC1/HGK, ZC2/TNIK, ZC3/MINK; experiment: KiNativ, OCI cells live cell; assay type: cell-based, human; conditions: labeling site Lys2, peptide DIKGQNVLLTENAEVK
[6] = biological target: T2, FLT3 D835Y (Homo sapiens, UniProt P36888, D835Y); experiment: KdELECT binding assay
T2 construct: purchased Eurofins DiscoverX

[7] = biological target: T3, ALK (Homo sapiens, UniProt Q9UM73); experiment: KdELECT binding assay
T3 construct: purchased Eurofins DiscoverX

[8] = biological target: HPK1 (Homo sapiens, UniProt Q92918); experiment: KiNativ, OCI cells live cell; assay type: cell-based; conditions: 2 h
[9] = biological target: YANK3 (Homo sapiens, UniProt Q86UX6); experiment: KiNativ, OCI cells live cell; assay type: cell-based; conditions: 2 h, labeling site Lys2, peptide […]
[10] = tested on: MARK1, MARK2; experiment: KiNativ, OCI cells live cell; assay type: cell-based, human; conditions: labeling site Lys1, peptide EVAVKIIDK
[11] = biological target: MAP3K2 (Homo sapiens, UniProt Q9Y2U5); experiment: KiNativ, OCI cells live cell; assay type: cell-based; conditions: 2 h, labeling site Lys1, peptide […]
[12] = biological target: MAST3 (Homo sapiens, UniProt O60307); experiment: KiNativ, OCI cells live cell; assay type: cell-based; conditions: 2 h, labeling site Lys2, peptide […]
[13] = biological target: PKN1 (Homo sapiens, UniProt Q16512); experiment: KiNativ, OCI cells live cell; assay type: cell-based; conditions: 2 h
[14] = biological target: NEK4 (Homo sapiens, UniProt P51957); experiment: KiNativ, OCI cells live cell; assay type: cell-based; conditions: 2 h, labeling site Lys2, peptide […]
[15] = biological target: PIK3C2B (Homo sapiens, UniProt O00750); experiment: KiNativ, OCI cells live cell; assay type: cell-based; conditions: 2 h, labeling site ATP, peptide […]
[16] = biological target: BTK (Homo sapiens, UniProt Q06187); experiment: KiNativ, OCI cells live cell; assay type: cell-based; conditions: labeling site Activation Loop, peptide YVLDDEYTSSVGSKFPVR
[17] = biological target: T2, FLT3 D835Y; experiment: Kinase assay by Reaction Biology; assay type: biochemical; conditions: enzymatic kinase assay
[18] = tested on: pAURKA, pAURKB, pAKT, and MCL1 in OCI-AML3 cells; experiment: Western blot, signaling inhibition; assay type: cell-based, human; conditions: 100 nM, 4 hours
Procedure: (§1) MOM13 cells were serum starved (RPMI plus 0.5% FBS) for 18–24 hours prior to start of drug treatment. For other cells, they were not serum starved. Drug treatments were carried out for 1 or 4 hours, at which time cells were lysed with Cell Lysis buffer (CST) or RIPA buffer (CST) supplemented with protease and phosphatase inhibitors. […] Western blots were developed with either Signal Fire ECL reagent (CST) or SuperSignal West Femto Maximum Sensitivity Substrate (Invitrogen) using Film or Odyssey FC Imaging System (LI-COR Biosciences). Western blots were repeated in 2–3 biological replicate experiments.

[19] = tested on: phospho-FLT3 and phospho-STAT5 in MOLM13 and MV4-11 cells; experiment: Western blot, signaling inhibition; assay type: cell-based, human; conditions: 4 hours
Procedure: as §1

[20] = biological target: FLT3 ITD/D835V (Homo sapiens, UniProt P36888, D835V/ITD); experiment: KdELECT binding assay
[21] = biological target: CaMK4 (Homo sapiens, UniProt Q16566); experiment: KiNativ, OCI cells live cell; assay type: cell-based; conditions: 2 h, labeling site Lys2, peptide […]
[22] = biological target: FES (Homo sapiens, UniProt P07332); experiment: KiNativ, OCI cells live cell; assay type: cell-based; conditions: 2 h, labeling site Lys1, peptide […]
[23] = biological target: CK1a (Homo sapiens, UniProt P48729); experiment: KiNativ, OCI cells live cell; assay type: cell-based; conditions: 2 h, labeling site Lys2, peptide […]
[24] = tested on: JNK1, JNK2, JNK3; experiment: KiNativ, OCI cells live cell; assay type: cell-based, human; conditions: labeling site Lys2, peptide DLKPSNIVVK
[25] = biological target: p38b (Homo sapiens, UniProt Q15759); experiment: KiNativ, OCI cells live cell; assay type: cell-based; conditions: 2 h, labeling site Other, peptide […]
Sequence of p38b (Q15759 whole entry): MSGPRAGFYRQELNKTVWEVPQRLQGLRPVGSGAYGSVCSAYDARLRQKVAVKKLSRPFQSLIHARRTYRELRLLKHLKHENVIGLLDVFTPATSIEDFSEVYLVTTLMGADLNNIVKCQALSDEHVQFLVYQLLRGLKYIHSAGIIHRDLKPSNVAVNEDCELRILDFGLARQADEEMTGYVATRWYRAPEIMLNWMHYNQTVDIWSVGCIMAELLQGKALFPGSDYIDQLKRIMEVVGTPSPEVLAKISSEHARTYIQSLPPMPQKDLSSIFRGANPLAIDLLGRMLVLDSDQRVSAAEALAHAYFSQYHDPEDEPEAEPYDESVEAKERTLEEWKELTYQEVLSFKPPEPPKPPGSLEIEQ

Sequence of HPK1 (Q92918 whole entry): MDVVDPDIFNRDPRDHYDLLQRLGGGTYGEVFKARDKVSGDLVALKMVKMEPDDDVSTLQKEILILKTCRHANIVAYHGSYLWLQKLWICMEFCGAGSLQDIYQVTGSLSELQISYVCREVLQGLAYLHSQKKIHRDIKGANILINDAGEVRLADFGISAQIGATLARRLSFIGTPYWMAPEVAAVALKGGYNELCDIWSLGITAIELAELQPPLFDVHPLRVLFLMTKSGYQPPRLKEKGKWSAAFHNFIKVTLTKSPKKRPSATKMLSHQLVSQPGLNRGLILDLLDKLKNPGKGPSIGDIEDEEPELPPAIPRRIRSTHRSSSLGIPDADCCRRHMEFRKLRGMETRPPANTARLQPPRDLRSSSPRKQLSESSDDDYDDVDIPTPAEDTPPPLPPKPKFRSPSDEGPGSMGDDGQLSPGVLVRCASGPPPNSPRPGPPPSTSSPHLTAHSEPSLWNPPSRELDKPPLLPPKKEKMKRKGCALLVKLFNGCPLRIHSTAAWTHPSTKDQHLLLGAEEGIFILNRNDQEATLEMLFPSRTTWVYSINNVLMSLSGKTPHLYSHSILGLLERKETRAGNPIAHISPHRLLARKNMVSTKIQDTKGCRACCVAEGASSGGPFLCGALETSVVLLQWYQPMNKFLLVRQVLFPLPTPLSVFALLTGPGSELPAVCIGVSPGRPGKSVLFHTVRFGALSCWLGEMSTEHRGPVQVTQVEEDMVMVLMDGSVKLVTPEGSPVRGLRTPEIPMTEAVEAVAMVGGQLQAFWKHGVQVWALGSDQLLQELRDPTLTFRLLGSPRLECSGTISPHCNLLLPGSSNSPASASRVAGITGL
Sequence of PKN1 (Q16512 whole entry): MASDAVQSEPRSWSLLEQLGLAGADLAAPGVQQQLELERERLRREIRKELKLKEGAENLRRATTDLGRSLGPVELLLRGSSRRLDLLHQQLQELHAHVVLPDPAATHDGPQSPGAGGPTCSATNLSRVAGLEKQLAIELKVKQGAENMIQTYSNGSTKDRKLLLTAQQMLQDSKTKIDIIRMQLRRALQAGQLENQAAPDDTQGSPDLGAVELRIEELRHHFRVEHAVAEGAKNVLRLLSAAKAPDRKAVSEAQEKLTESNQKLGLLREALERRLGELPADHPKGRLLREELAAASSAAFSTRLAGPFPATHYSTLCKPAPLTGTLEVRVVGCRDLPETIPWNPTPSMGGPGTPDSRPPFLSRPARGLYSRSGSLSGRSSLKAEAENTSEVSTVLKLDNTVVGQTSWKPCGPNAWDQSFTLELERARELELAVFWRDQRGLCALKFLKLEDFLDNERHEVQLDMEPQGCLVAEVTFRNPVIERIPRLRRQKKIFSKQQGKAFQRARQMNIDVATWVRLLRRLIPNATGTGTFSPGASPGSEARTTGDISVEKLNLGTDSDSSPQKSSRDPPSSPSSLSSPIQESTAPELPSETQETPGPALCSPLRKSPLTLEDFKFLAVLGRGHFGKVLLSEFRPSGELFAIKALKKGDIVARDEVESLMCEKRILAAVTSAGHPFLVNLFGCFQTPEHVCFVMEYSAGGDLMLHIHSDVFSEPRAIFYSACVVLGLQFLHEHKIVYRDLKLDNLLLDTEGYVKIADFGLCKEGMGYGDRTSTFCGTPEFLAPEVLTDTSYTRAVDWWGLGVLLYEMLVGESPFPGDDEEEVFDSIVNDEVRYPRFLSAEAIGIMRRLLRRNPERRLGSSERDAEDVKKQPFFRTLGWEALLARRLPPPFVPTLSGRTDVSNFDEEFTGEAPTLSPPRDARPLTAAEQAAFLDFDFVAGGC
Sequence of CaMK4 (Q16566 whole entry): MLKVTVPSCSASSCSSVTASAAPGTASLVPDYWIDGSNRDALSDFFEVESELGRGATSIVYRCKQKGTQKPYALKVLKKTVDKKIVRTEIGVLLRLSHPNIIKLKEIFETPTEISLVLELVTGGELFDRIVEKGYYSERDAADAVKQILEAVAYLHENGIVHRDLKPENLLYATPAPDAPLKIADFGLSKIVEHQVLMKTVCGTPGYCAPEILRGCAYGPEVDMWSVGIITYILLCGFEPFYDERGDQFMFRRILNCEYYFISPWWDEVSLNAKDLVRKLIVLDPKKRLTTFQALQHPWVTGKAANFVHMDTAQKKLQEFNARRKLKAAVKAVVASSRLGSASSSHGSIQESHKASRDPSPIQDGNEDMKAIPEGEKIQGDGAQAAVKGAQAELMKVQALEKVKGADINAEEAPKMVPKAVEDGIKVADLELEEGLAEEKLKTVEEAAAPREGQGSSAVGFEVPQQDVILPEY
Sequence of TBK1 (Q9UHD2 whole entry): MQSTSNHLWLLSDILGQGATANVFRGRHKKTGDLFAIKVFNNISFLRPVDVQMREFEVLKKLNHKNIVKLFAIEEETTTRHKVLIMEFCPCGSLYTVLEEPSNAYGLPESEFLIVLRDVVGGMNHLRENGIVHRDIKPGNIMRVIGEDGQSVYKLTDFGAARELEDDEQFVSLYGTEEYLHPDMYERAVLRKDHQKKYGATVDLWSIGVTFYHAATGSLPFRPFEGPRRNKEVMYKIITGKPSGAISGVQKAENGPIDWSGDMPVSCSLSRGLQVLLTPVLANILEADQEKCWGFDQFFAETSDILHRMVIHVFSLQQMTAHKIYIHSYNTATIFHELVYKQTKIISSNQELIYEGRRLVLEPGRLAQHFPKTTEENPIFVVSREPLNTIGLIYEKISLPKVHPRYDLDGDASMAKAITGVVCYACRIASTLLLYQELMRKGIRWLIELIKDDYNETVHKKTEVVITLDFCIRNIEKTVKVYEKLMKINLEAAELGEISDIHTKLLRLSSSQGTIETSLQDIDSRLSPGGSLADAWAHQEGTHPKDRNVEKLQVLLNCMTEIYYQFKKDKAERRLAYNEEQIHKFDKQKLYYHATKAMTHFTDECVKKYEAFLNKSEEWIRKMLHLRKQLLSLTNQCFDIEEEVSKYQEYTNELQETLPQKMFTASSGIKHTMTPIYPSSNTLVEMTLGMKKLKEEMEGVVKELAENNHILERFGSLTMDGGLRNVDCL
Sequence of YANK3 (Q86UX6 whole entry): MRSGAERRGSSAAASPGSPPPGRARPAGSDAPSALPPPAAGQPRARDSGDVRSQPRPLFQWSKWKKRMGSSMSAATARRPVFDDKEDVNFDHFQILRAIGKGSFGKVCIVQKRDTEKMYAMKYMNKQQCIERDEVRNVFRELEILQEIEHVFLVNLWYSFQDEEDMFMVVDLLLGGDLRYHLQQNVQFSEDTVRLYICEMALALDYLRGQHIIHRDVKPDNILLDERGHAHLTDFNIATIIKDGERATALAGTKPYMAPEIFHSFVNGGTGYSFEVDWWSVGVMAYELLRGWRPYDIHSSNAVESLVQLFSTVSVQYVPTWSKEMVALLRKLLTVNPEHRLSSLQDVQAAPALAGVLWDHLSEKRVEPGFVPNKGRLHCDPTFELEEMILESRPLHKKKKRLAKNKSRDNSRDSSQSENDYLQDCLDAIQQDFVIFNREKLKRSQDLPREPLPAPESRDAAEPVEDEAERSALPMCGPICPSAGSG
Sequence of PKCd (Q05655 whole entry): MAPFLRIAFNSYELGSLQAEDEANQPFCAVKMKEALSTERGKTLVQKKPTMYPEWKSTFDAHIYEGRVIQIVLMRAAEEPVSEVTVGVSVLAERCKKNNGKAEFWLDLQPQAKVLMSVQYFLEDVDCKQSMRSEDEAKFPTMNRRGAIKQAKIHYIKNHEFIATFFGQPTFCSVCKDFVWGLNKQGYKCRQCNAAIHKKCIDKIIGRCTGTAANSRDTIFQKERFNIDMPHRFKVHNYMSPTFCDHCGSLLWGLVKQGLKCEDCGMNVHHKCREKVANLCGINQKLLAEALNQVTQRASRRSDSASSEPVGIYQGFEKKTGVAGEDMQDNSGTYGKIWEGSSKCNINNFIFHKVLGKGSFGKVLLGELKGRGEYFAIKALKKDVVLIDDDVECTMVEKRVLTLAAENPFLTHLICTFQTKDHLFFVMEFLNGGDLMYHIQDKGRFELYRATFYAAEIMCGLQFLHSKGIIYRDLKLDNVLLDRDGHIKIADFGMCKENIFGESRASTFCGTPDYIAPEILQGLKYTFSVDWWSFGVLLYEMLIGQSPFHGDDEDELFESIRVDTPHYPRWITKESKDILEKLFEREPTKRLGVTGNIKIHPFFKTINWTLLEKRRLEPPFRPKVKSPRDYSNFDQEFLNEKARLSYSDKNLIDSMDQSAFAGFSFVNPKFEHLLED
Sequence of CK1a (P48729 whole entry): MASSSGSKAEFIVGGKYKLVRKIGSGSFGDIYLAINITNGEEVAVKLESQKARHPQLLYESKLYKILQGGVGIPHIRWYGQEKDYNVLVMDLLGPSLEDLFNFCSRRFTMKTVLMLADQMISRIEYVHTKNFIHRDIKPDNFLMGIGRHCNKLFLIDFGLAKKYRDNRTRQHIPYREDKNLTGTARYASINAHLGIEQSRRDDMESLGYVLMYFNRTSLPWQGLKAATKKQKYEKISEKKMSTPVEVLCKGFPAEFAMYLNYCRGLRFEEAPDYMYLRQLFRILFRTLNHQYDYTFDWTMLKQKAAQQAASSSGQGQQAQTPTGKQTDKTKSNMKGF

CN1CCN(Cc2ccc(Nc3ncc(Cl)c(Nc4ccccc4S(=O)(=O)N(C)C)n3)cc2)CC1 [TP-0903]
inhibition at 0.1 µM [1]: -3.8% | inhibition at 0.1 µM [2]: -22.5% | inhibition at 0.1 µM [3]: 83% | inhibition at 0.1 µM ([4]; labeling site Lys1, peptide WHNQETGEQIAIKQCR): -16% | inhibition at 0.1 µM ([4]; labeling site Lys2, peptide DLKPENIVLQQGEQR): 14.6% | Inhibition [5]: -42.0% | Kd [6]: 1400 pM | Kd [7]: < 5000 pM | inhibition at 0.1 µM ([8]; labeling site Lys1, peptide DKVSGDLVALKMVK): 81% | inhibition at 0.1 µM ([8]; labeling site Lys2, peptide DIKGANILINDAGEVR): 78.7% | inhibition at 0.1 µM [9]: 8.4% | Inhibition [10]: 26.6% | inhibition at 0.1 µM [11]: 30.6% | inhibition at 0.1 µM [12]: -0.112% | inhibition at 0.1 µM ([13]; labeling site Lys1, peptide VLLSEFRPSGELFAIKALK): 63.2% | inhibition at 0.1 µM ([13]; labeling site Lys2, peptide DLKLDNLLLDTEGYVK): 33.7% | inhibition at 0.1 µM [14]: -12.3% | inhibition at 0.1 µM [15]: 0.282% | Inhibition [16]: 57.3% | IC50 [17]: 120 pM | pAURKA, pAURKB, pAKT, and MCL1 by immunoblot [18]: inhibited | phospho-FLT3 and phospho-STAT5 by immunoblot [19]: inhibited | Kd [20]: 790 pM | inhibition at 0.1 µM [21]: -2.6% | inhibition at 0.1 µM [22]: 47.3% | inhibition at 0.1 µM [23]: -12.3% | Inhibition [24]: 14.0% | inhibition at 0.1 µM [25]: -9.9%
